From US20190040025A1, “INDOLEAMINE 2,3-DIOXYGENASE INHIBITOR, PREPARATION METHOD THEREFOR, AND APPLICATION” (Jiangsu Hansoh Pharmaceutical Group Co., Ltd., priority 2016, published 2019)

Key:
[1] = biological target: T1, Human indoleamine 2,3-dioxygenase (IDO) (Homo sapiens, UniProt P14902); test: Enzymatic test for IDO activity inhibition; format: biochemical; settings: 40 nM IDO enzyme, 0.2 mM L-tryptophan, 60 minutes at 30° C.
T1 construct: purchased BPS Bioscience Inc
Procedure: Human indoleamine 2,3-dioxygenase (IDO) was purchased from BPS Bioscience Inc. The enzymatic reaction of idoleamine 2,3-dioxygenase (IDO) was performed in a 96-well plate with a reaction volume of 20 μL. The reaction conditions were: 40 nM IDO enzyme, 0.2 mM L-tryptophan, 50 mM KPB (pH 6.5) buffer, 20 mM sodium L-L-ascorbate, 10 μM methylene blue, 0.2 mg/mL catalase, different concentrations of compounds containing <1% dimethyl sulfoxide. After reacting for 60 minutes at 30° C., 5 μL of 30% (w/v) trichloroacetic acid (in 50 mM KPB buffer) weres added to each well. The plate was incubated for 30 minutes at 50° C. to hydrolyze N-formyl-kynurenine to kynurenine. 25 μL of 2% (w/v) p-(dimethylamino)benzaldehyde (p-DMBA)/glacial acetic acid solution were added to each well. The absorbance at 490 nm was read on a BioTek Synergy H1 microplate reader […].
The stock solution of the test compound was prepared to 10 mM with dimethyl sulfoxide, diluted with dimethyl sulfoxide to the highest concentration of the test during the experiment, then diluted in 1:3 gradient, and generally diluted to 8 to 10 concentration points. Duplicate wells were set for each concentration point, and one reference compound was included in each experiment. The original data of the absorbance at 490 nm read on a microplate reader were analyzed. The inhibition of IDO enzyme activity was calculated at different concentrations of the test compound. The half-inhibitory concentration IC50 value of the compound was obtained by non-linear fitting analysis of inhibition percentage data by GraphPad Prism software.

[2] = Pharmacokinetic (PK) analysis of rat plasma; format: in vivo; settings: Sprague-Dawley, po, 20 mg/kg, SD rats, single gavage, 20 mg/10 mL/kg
Procedure: The pharmacokinetics test of the test compound was performed with Sprague Dawley (SD) rats (Shanghai Slac Laboratory Animal Co., LTD).
Mode of administration: Single gavage.
U Dosage: 20 mg/10 mL/kg.
Formulation prescription: 3% dimethylacetamide and 20% hydroxypropyl-3-cyclodextrin.
Sampling points: before administration and 15 minutes, 0.5, 1, 2, 4, 6, 8 and 24 hours after administration.
Plasma sampling and sample processing: • 1) 0.2 ml of intravenous blood was collected and placed in an EDTA-2K tube. The blood was centrifuged at 4° C. for 5 minutes at 6,000 rpm to separate the plasma, which was stored at −80° C. • 2) 160 μL of acetonitrile were added to 40 μL of plasma sample, standard, and internal reference. The mixture was shaken vertically for 3 minutes, and centrifuged at 4000 rpm for 10 minutes. 100 μL of the supernatant were taken, and then added with 100 μL of deionized water and mixed well. 100 μL of the resulting solution was taken for LC/MS/MS analysis. The instrument for plasma LC/MS/MS analysis was AB Sciex API 4000.
Liquid Chromatography Analysis: • Liquid chromatography conditions: Shimadzu LC-20AD pump • Chromatographic column: phenomenex Gemiu 5 μm C18 50×4.6 mm • Mobile phase: solution A was 0.1% formic acid solution, and solution B was acetonitrile • Flow rate: 0.8 mL/min • Elution time: 0-3.01 minutes and the eluent was as follows:
• Mass spectrometry analysis: setup conditions of mass spectrometer: positive ion electrospray ionization (ESI) mode. • Experimental results: the main parameters of pharmacokinetics were calculated by WinNonlin 6.1 and the experimental results are shown in the following table: […]

[3] = biological target: T2, indoleamine 2,3-dioxygenase (IDO) in HeLa cells (Homo sapiens, UniProt P14902); test: Cell model test for IDO activity inhibition (interferon γ induced HeLa cells); format: cell-based; settings: interferon γ 50 ng/mL, 24 hours, read-out: Cytological Test IC50
T2 construct: Interferon γ induced the expression of IDO in HeLa cells; host or cells: HeLa cells induced with interferon γ
Procedure: Interferon γ induced the expression of IDO in HeLa cells. This model was used to test the inhibitory activity of compounds on indoleamine 2,3-dioxygenase (IDO). The culture medium of HeLa cells (ATCC) was phenol red-free RPMI-1640 containing 100 μM L-tryptophan. The stock solution of the test compound was prepared to 10 mM with dimethyl sulfoxide, and diluted with dimethyl sulfoxide to the highest concentration of the test during the experiment, then diluted in three-fold gradient, and generally diluted to 8 to 10 concentration points. Duplicate wells were set for each concentration point. The final concentration of DMSO was 0.5%, and internal reference compound was included in each experiment.
The procedure of the experiment was as follows: 20,000 HeLa cells (ATCC) per well were added on a 96-well culture plate and incubated overnight. After 24 hours, interferon γ (final concentration of 50 ng/mL) and different concentrations of the test compound and the internal reference compound were added to the incubated cells. After 24 hours, 140 μL of the supernatant/well was transferred to a new 96-well plate, and 10 μL of 6.1 N trichloroacetic acid was added to each well. The plate was incubated for 30 minutes at 50° C. to hydrolyze N-formyl-kynurenine to kynurenine. The reaction mixture was centrifuged at 2500 rpm for 10 minutes to remove the precipitate, and the supernatant (100 μL) was transferred to another new 96-well plate. 100 μL of 2% (W/V) p-(dimethylamino)benzaldehyde (p-DMBA)/glacial acetic acid solution was added to each well. The absorbance at 490 nm was read on a BioTek Synergy H1 microplate reader […].
The original data of the absorbance at 490 nm read on a microplate reader were analyzed. The inhibition of IDO enzyme activity was calculated at different concentrations of the test compound. The half-inhibitory concentration IC50 value of the compound was obtained by non-linear fitting analysis of inhibition percentage data by GraphPad Prism software.

[4] = system: mouse rectal cancer cell line Colon26; test: Anti-tumor effect in Colon26 tumor-bearing mouse model; format: in vivo, mouse (Balb/c); settings: Colon26 tumor-bearing mice, 10 mg/kg, D12
Description: The present invention further used the Colon26 tumor-bearing mouse model to test the anti-tumor effect of the example compounds. The Colon26 tumor-bearing mouse model was the mouse rectal cancer cell line Colon26 purchased from Guangzhou Ginio Biological Technology Co., Ltd., and the culture medium used was RPMI1640 containing 10% fetal bovine serum. The mouse strain used for tumor-bearing was Balb/c purchased from Sino-British SIPPR/BK Lab Animal Co., Ltd. At the time of implanting, the Colon26 cells in logarithmic growth phase were collected and mixed to 10 million cells/ml. Each mouse was implanted subcutaneously with 100 μl of one million cells. When the tumor grew to about 100 cubic millimeters, animals were randomly divided into groups with 8 animals per group. Drug administration was started (D0).
Mode of administration: intragastric administration, twice a day.
Formulation prescription: 3% dimethylacetamide and 20% hydroxypropyl-β-cyclodextrin. • Administration period and tumor measurement: The administration period was 13 days. The tumor volume was measured, the mice were weighed, and the data were recorded, 3 times per week. The calculation formula of tumor volume (V) is: V=½a×b2 where a and b represent length and width, respectively. The calculation formula of T/C is: T/C (%)=100×ΔT/ΔC. Tumor inhibition rate (%)=1−T/C (%). • Experimental results: The antitumor effect of the compound of Example 15 in Colon26 tumor-bearing mouse model is shown in the following table.
Under the same experimental conditions, the dosage was adjusted. The anti-tumor effect of Example 15 and its optical isomers 18-(1) and 18-(2) in Colon26 tumor-bearing mouse model is shown in the following table: […]

T2 sequence (P14902 whole entry): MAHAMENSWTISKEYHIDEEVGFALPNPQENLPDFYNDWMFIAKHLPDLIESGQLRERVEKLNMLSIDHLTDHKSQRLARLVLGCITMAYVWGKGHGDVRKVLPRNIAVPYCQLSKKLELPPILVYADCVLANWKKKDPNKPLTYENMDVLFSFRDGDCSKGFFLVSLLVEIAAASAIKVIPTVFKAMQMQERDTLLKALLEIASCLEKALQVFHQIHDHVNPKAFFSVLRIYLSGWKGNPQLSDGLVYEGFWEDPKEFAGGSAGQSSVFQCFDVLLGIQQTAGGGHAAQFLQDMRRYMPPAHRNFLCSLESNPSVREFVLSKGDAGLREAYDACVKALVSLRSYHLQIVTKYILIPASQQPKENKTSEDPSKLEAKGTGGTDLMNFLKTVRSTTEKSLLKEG
T1 sequence (P14902 whole entry): as above

Row | IC50 [1] | AUC(0-inf) [2] | Cmax [2] | Tmax [2] | half-life [2] | IC50 [3] | Compound | Tumor inhibition rate (%) D12 [4]
1 | 70 nM | 8620 ng·h/mL | 3680 ng/mL | 30 min | 162 min | 15 nM | NC(=O)C(=O)NCCNc1nonc1/C(=N/O)Nc1ccc(F)c(Br)c1 [Example 1, (Z)—N^1-(2-((4-(N-(3-bromo-4-fluorophenyl)-N′-hydroxycarbamimidoyl)-1,2,5-oxadiazol-3-yl)amino)ethyl)oxalamide] | 
2 | 71 nM |  |  |  |  | 18 nM | CNC(=O)C(=O)NCCNc1nonc1/C(=N/O)Nc1ccc(F)c(Br)c1 [Example 2, (Z)—N^1-(2-((4-(N-(3-bromo-4-fluorophenyl)-N′-hydroxycarbamimidoyl)-1,2,5-oxadiazol-3-yl)amino)ethyl)-N^2-methyloxalamide] | 
3 | 56 nM |  |  |  |  | 20 nM | CCNC(=O)C(=O)NCCNc1nonc1/C(=N/O)Nc1ccc(F)c(Br)c1 [Example 3, (Z)—N^1-(2-((4-(N-(3-bromo-4-fluorophenyl)-N′-hydroxycarbamimidoyl)-1,2,5-oxadiazol-3-yl)amino)ethyl)-N^2-ethyloxalamide] | 
4 | 53 nM |  |  |  |  | 53 nM | O=C(NCCNc1nonc1/C(=N/O)Nc1ccc(F)c(Br)c1)C(=O)NC1CC1 [Example 7, (Z)—N^1-(2-((4-(N-(3-bromo-4-fluorophenyl)-N′-hydroxycarbamimidoyl)-1,2,5-oxadiazol-3-yl)amino)ethyl)-N^2-cyclopropyloxalamide] | 
5 | 76 nM |  |  |  |  | 33 nM | O=C(NO)C(=O)NCCNc1nonc1/C(=N/O)Nc1ccc(F)c(Br)c1 [Example 8, (Z)—N^1-(2-((4-(N-(3-bromo-4-fluorophenyl)-N′-hydroxycarbamimidoyl)-1,2,5-oxadiazol-3-yl)amino)ethyl)-N^2-hydroxyoxalamide] | 
6 | 19 nM |  |  |  |  | 37 nM | NS(=O)(=O)NC1CCC(Nc2nonc2/C(=N/O)Nc2ccc(F)c(Br)c2)CC1 (centres unmarked) [Example 10, (Z)—N-(3-bromo-4-fluorophenyl)-N′-hydroxy-4-((4-(sulfamoylamino)cyclohexyl)amino)-1,2,5-oxadiazole-3-carboximidamide] | 
7 | 42 nM |  |  |  |  | 38 nM | NS(=O)(=O)NC1CC(Nc2nonc2/C(=N/O)Nc2ccc(F)c(Br)c2)C1 (centres unmarked) [Example 11, (Z)—N-(3-bromo-4-fluorophenyl)-N′-hydroxy-4-((3-(sulfamoylamino)cyclobutyl)amino)-1,2,5-oxadiazole-3-carboximidamide] | 
8 | 64 nM |  |  |  |  | 47 nM | Cc1ccc(S(=O)(=O)N=S(C)(=O)NCCNc2nonc2C(=NO)Nc2ccc(F)c(Br)c2)cc1 (centres unmarked) [Example 13, (Z)—N-(3-bromo-4-fluorophenyl)-N′-hydroxy-4-{[2-({S-methyl-N-[(4-methylphenyl)sulfonyl]sulfonimidoyl}amino)ethyl]amino}-1,2,5-oxadiazole-3-carboximidamide] | 
9 | 38 nM | 7540 ng·h/mL | 1050 ng/mL | 30 min | 330 min | 12 nM | CS(=O)(=O)N=S(C)(=O)CCNc1nonc1/C(=N/O)Nc1ccc(F)c(Br)c1 (centres unmarked) [Example 14, (Z)—N-(3-bromo-4-fluorophenyl)-N′-hydroxy-4-((2-(S-methyl-N-(methylsulfonyl)sulfonimidoyl)ethyl)amino)-1,2,5-oxadiazole-3-carboximidamide] | 
10 | 66 nM |  |  |  |  | 19 nM | CN=S(C)(=O)CCNc1nonc1/C(=N/O)Nc1ccc(F)c(Br)c1 (centres unmarked) [Example 16, (Z)—N-(3-bromo-4-fluorophenyl)-4-((2-(N,S-dimethylsulfonimidoyl)ethyl)amino)-N′-hydroxy-1,2,5-oxadiazole-3-carboximidamide] | 
11 | 75 nM |  |  |  |  | 16 nM | CCS(=O)(CCNc1nonc1/C(=N/O)Nc1ccc(F)c(Br)c1)=NC (centres unmarked) [Example 17, (Z)—N-(3-bromo-4-fluorophenyl)-N′-hydroxy-4-((2-(N-methylethylsulfonimidoyl)ethyl)amino)-1,2,5-oxadiazole-3-carboximidamide] | 
12 | 19 nM | 7320 ng·h/mL | 2770 ng/mL | 30 min | 122 min | 11 nM | C[S@@](=O)(CCNc1nonc1/C(=N/O)Nc1ccc(F)c(Br)c1)=NS(=O)(=O)C1CC1 [Example 18-①, (R,Z)—N-(3-bromo-4-fluorophenyl)-4-((2-(N-(cyclopropylsulfonyl)-S-methylsulfonimidoyl)ethyl)amino)-N′-hydroxy-1,2,5-oxadiazole-3-carboximidamide] | 72.54%
13 | 24 nM | 4610 ng·h/mL | 2020 ng/mL | 30 min | 84 min | 9 nM | C[S@](=O)(CCNc1nonc1/C(=N/O)Nc1ccc(F)c(Br)c1)=NS(=O)(=O)C1CC1 [Example 18-②, (S,Z)—N-(3-bromo-4-fluorophenyl)-4-((2-(N-(cyclopropylsulfonyl)-S-methylsulfonimidoyl)ethyl)amino)-N′-hydroxy-1,2,5-oxadiazole-3-carboximidamide] | 68.49%
